Where two headings read alike, the source gives them in different places.
Key:
[1] = phase 3 clinical trials; cited from earlier work
diabetic beagle dogs = experiment: Subcutaneous injection into diabetic dogs, glucose suppression; format: in vivo; conditions: compared with unmodified insulin
Experimental: FIG. 4. Subcutaneous injection of human insulin and P-insulin oligomers into diabetic beagle dogs.
The formulation of example 3 containing P-insulin oligomers of sequence ID NO.2 and with 3:1 M:M protamine/insulin or unmodified insulin were injected subcutaneously into diabetic dogs.

[2] = tested on: pancreatectomized diabetic beagle dogs; conditions: dog, in vivo, iv
L6 rat myocytes = experiment: 2-deoxyglucose uptake in L6 rat myocyte cell cultures; format: cell-based; conditions: 60 min incubation
Experimental: FIG. 5. Dose response curve of human & porcine & P-insulin oligomers in L6 rat myocytes. Cells were incubated for 60 min. in the various concentrations of each insulin in separate experiments. 2-deoxyglucose uptake was then measured.
P-insulin oligomers of sequence ID NO. 1 were tested in L6 rat myocyte cell cultures for their ability to cause glucose uptake.

[3] = tested on: pancreatectomized diabetic beagle dogs; experiment: Intravenous injection into pancreatectomized diabetic dogs, blood glucose
[4] = U.S. Pat. No. 5,453,417 & PCT/CA92/00082; cited from earlier work
Sprague-Dawley rats = experiment: Pulmonary (intratracheal) administration to Sprague-Dawley rats, whole blood glucose; format: in vivo
Experimental: FIG. 6. Glucose response of Sprague-Dawley rats to […] of phosphorylated insulin hexamer. Rats were injected at Oh and glucose levels measured for 12 h. As shown, glucose levels dropped by 2 h post-dosing and remained suppressed out to 11 h post-dose, after which they returned to baseline or pre-dose levels.
Via the pulmonary route, six Sprague-Dawley rats (BW 250-360 g.) were administered 4 mg of phosphorylated insulin oligomer (in the form of hexamer). The animals were dosed by intratracheal administration using a PennCentury intratracheal Aerosolizer (Microsprayer). The dose volume was 100 μL/animal. The dose concentration for the study was prepared by dilution of 30 mg/mL phosphorylated insulin hexamer in isotonic phosphate buffered normal saline, pH 7.4.
An Antisedan cocktail consisting of atipamezole hydrochloride (1 mg/mL, 1 mg/kg) and saline was administered by subcutaneous injection at a dose volume of 1 mL/kg, following completion of the dosing process. A series of 13 blood samples (approximately 0.1 mL/sample) were collected from each animal at 1, 2, 3, 4, 5, 6, 7, 8, 9, 10, 11 and 12 hours post-dose. For this purpose, each rat (unanesthetized) was bled by jugular/tail vein venipuncture (or other site as deemed necessary) and the sample used for measuring whole blood glucose levels using the Accu Soft Advantage™ (glucometer) method. […]

[5] = IV injection, pancreatectomized diabetic dogs

Detemir
fasting blood glucose (FBG) achieved [1]: 145 mg %

Lantus
fasting blood glucose (FBG) achieved [1]: 145 mg %

P-insulin oligomers: phosphorylated insulin oligomers comprising sequence ID NOs. 1 and 2; FIG. 3 and 5 use ID NO. 1, FIG. 4 uses ID NO. 2
glucose suppression / duration of action (diabetic beagle dogs): extended duration of action | dose at which hypoglycemia was observed [2]: 8 times the basal or "glucose ma | serum half-life / duration of action (in words) [2]: extended duration of action (long serum half-life) | dose response of 2-deoxyglucose uptake (L6 rat myocytes; entire dose range): flattened dose response at all concentrations investigated | maximal stimulation of deoxy-glucose uptake (L6 rat myocytes; relative to human (and porcine) insulin): markedly lower than that for porcine or human insulin | course of blood glucose after injection [3, 5]: maintenance of normal glucose without hyperglycemia at all doses

human insulin
serum half-life / duration of action (in words) ([3]; IV injection, pancreatectomized diabetic beagle dogs): short serum half-life | course of blood glucose after injection [3, 5]: rapid decline in blood glucose | hypoglycemia [3, 5]: pronounced hypoglycemia | duration of action ([3]; given IV, pancreatectomized diabetic dogs): 20 min

monomeric phosphorylated insulin: monomeric phosphorylated insulin of the Lougheed patents U.S. Pat. No. 5,453,417 & PCT/CA92/00082
flattening of insulin's dose response [4]: 3-4 fold

phosphorylated insulin hexamer: phosphorylated insulin oligomer in the form of hexamer, in isotonic phosphate buffered normal saline, pH 7.4
time at which glucose returned to pre-dose levels (Sprague-Dawley rats; 4 mg): ≤ 12 h | time for which blood glucose remained below baseline post-dosing (Sprague-Dawley rats; 4 mg (FIG. 6 legend says 40 mg)): 11 h
